Test results: US20260124170A1, “PHARMACEUTICAL COMPOSITION COMPRISING METABOLITE OF ENAVOGLIFLOZIN, AND USE THEREOF” (DAEWOONG PHARMACEUTICAL CO., LTD., priority 2022, published 2026)

Tests used:
SGLT2 [1] = molecular target: T1, SGLT2 (Homo sapiens, UniProt P31639); assay: Change in SGLT2 inhibition according to drug pretreatment time (CHO-SGLT2); type: cell-based; details: for IC50: CHO-SGLT2
T1 construct: expressed in transfected cells
T1 sequence (P31639 1-672): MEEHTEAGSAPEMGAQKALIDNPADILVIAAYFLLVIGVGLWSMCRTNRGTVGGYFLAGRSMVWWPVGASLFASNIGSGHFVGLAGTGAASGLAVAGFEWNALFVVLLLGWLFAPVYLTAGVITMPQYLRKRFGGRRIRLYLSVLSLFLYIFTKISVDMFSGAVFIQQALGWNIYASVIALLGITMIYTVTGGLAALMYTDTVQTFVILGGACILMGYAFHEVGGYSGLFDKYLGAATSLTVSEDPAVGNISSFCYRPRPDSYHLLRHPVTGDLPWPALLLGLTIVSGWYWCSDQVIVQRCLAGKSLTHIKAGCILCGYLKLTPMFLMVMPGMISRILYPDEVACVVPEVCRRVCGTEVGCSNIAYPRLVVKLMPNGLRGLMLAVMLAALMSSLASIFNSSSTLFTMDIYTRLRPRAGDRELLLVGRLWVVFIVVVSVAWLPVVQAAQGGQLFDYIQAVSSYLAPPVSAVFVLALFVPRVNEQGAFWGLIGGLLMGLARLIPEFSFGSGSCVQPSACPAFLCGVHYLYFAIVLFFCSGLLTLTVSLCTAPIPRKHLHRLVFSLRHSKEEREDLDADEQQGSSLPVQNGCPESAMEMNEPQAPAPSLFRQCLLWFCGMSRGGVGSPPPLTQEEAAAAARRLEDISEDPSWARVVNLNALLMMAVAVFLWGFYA
From the text: (§1) All data values are expressed as the mean±SD of […].

SGLT1 [2] = molecular target: T2, SGLT1 (Homo sapiens, UniProt P13866); assay: Change in SGLT1 inhibition according to drug pretreatment time (CHO-SGLT1); type: cell-based; details: pretreatment 0, 1, 2 h; one-way ANOVA
T2 construct: expressed in transfected cells
T2 sequence (P13866 1-664): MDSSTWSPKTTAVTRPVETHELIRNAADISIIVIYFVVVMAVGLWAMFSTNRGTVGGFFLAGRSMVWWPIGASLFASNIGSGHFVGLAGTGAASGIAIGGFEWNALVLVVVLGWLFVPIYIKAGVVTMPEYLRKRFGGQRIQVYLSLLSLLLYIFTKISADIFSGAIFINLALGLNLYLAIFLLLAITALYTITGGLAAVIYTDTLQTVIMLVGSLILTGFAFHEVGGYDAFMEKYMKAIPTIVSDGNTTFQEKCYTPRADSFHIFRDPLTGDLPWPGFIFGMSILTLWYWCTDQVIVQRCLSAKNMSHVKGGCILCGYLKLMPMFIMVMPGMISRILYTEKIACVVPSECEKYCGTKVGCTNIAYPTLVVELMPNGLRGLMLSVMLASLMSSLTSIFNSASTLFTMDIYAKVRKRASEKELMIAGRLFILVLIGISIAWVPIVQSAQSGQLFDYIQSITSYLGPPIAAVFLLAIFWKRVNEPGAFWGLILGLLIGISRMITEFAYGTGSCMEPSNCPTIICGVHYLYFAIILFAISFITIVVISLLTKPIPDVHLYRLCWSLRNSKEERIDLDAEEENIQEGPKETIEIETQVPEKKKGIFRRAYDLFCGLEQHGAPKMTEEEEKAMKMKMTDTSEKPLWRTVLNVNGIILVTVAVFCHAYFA
From the text: as §1

SGLT1 [3] = molecular target: T2, SGLT1; assay: SGLT1 inhibition with varied substrate AMG concentration (Dixon / L-B plot); type: cell-based; details: CHO-SGLT1, varied AMG concentration
Procedure: (§3) From these, the inhibition mechanism was confirmed, and the inhibition constant was calculated.

SGLT2 [4] = molecular target: T1, SGLT2; assay: SGLT2 inhibition with varied substrate AMG concentration (Dixon / L-B plot); type: cell-based
Procedure: as §3

SGLT2 [5] = molecular target: T1, SGLT2; assay: Inhibition of [14C]AMG uptake in SGLT2-overexpressing CHO cells; type: cell-based; details: CHO-SGLT2 cells, 10 μM [14C]AMG, 2 h, 37° C.
Procedure: The evaluation was performed in the same manner as the evaluation of SGLT1 inhibition, except that an SGLT2-overexpressing cell line (CHO-SGLT2 stable cells) was used, and the inhibitory evaluation substances described below were used.

[6] = tested on: STZ-induced type 1 diabetic rats; assay: Oral glucose tolerance test in type 1 diabetic rat model; type: in vivo; details: STZ rats, 1 mg/kg, glucose 2 g/kg oral
Procedure: (§2) STZ was administered to Sprague Dawley (SD) male 5-week-old rats on day 0 (G2 to G7, excluding G1), and non-fasting blood glucose levels were measured on day 3 to determine whether type 1 diabetes was induced. On day 7, the experimental substances were administered to each group, and blood and urine samples were collected at 6 h, 24 h, 48 h, and 72 h to measure non-fasting blood glucose levels. On day 14 of the experiment, the experimental animals were fasted for 16 h, and on day 15, 2 g/kg of glucose solution was orally administered after the experimental substances were administered. Thereafter, blood glucose levels were measured at 15, 30, 60, 90, and 120 minutes after glucose administration. After blood collection, the serum was separated, and the IL-6 inflammatory response was evaluated using an interleukin-6 (IL-6) enzyme-linked immunosorbent assay (ELISA) kit.

interleukin-6 (IL-6) = assay: Serum IL-6 ELISA in type 1 diabetic rat model; type: in vivo; details: STZ rats, 6, 24, 48, 72 hours after administration
Procedure: as §2

Row | IC50 (SGLT2 [1]; IC50 according to pretreatment time (nM), SGLT2, 1 h, 1 h pretreatment in sodium-free buffer) [nM] | IC50 (SGLT2 [1]; IC50 according to pretreatment time (nM), SGLT2, 2 h, 2 h pretreatment in sodium-free buffer) [nM] | IC50 (SGLT2 [1]; no pretreatment, read-out: IC50 according to pretreatment time (nM), SGLT2, 0 h) [nM] | Change in SGLT2 inhibition as exposure time increased (SGLT2 [1]; pretreatment 0, 1, 2 h, one-way ANOVA) | Inhibition mechanism, SGLT1 (SGLT1 [3]) | Inhibition mechanism, SGLT2 (SGLT2 [4]; CHO-SGLT2, varied AMG concentration) | Ki (SGLT2 [4]; from slope of L-B plot, CHO-SGLT2) [nM] | IC50 (SGLT2 [5]) [nM] | Structure (SMILES) | Change in SGLT1 inhibition as exposure time increased (SGLT1 [2]) | Blood glucose level in OGTT [6] | Change in IL-6 level (interleukin-6 (IL-6))
1 | 6.67 ± 1.29 | 7.35 ± 0.82 | 7.2 ± 2.33 | did not increase or significantly change | Competitive inhibition | Competitive inhibition | 5.15 | 6.65 ± 2.92 | OC[C@H]1O[C@@H](c2ccc(Cl)c(Cc3ccc(O[C@H]4CCOC4)cc3)c2)[C@H](O)[C@@H](O)[C@@H]1O [Empagliflozin] | did not show any significant change or increase in inhibition |  | 
2 |  |  |  |  |  |  |  |  | CCOc1ccc(Cc2cc([C@@H]3O[C@H](SC)[C@@H](O)[C@H](O)[C@H]3O)ccc2Cl)cc1 [Sotagliflozin] |  | lowering of the blood glucose level was observed | slight decrease
